Test results from paper PMC11939889, “Efficient Incorporation of DOPA into Proteins Free from Competition with Endogenous Translation Termination Machinery” (Biomolecules, 2025).

Biological target: T1, DOPARS (Methanocaldococcus jannaschii, UniProt Q57834, D158A/D286A/E220K/F261S/H283P/H70A/I159A/L282P/L65E/M285R/N268D/P284L/Y119F)
T1 construct: gene tyrS
Assay: isothermal titration calorimetry
Format: binding

T1 sequence (Q57834 whole entry L65E/H70A/Y119F/D158A/I159A/E220K/F261S/N268D/L282P/H283P/P284L/M285R/D286A): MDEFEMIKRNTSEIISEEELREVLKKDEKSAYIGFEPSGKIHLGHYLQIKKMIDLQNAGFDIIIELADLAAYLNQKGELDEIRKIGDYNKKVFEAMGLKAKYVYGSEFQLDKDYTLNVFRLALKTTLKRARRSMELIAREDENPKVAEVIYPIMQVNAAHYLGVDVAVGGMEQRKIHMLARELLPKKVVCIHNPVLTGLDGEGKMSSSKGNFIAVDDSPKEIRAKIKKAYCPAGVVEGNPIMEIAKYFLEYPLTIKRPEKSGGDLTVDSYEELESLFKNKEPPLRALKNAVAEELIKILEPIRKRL

In the case of N[C@@H](Cc1ccc(O)c(O)c1)C(=O)O [DOPA, 3,4-Dihydroxy-L-phenylalanine], the Kd is reported as 11.7 µM.
